Target: human PDE10 (Homo sapiens (Human), UniProt Q9Y233)
Assay: Evaluation of enzyme inhibitory activity: human PDE10 inhibitory effect (IMAP TR-FRET)
Assay type: biochemical
Conditions: cAMP substrate
Description: (Evaluation of Enzyme Inhibitory Activity: Human PDE10 Inhibitory Effect)
IMAP TR-FRET Phosphodiersterase Evaluation Assay Kit (Molecular Device) was used for the measurement. Ten μL of a diluted test compound having each concentration and 5 μL of the enzyme PDE10 (BPA Bioscience) that had been diluted to 2 ng/mL with 1×IMAP Reaction Buffer (prepared with 5×included with the kit, 10 mM Tris-HCl, pH=7.2, 10 mM MgCl2, 0.05% NaN3, and 0.1% BSA) containing 0.1% BSA were added to a 384-well plate (Corning). The obtained mixture was then pre-incubated at room temperature for 5 minutes. Thereafter, 5 μL of cAMP substrate solution which was included with the kit and diluted to 400 nM with 1×IMAP Reaction Buffer containing 0.1% BSA, was added to the reaction solution, and the obtained mixture was reacted at room temperature for 60 minutes. Thereafter, 60 μL of an IMAP TR-FRET Binding solution included with the kit was further added to the reaction solution, and the obtained mixture was then left for 3 hours or more. Subsequently, using ARVO SX (PerkinElmer), the fluorescent intensity of Terbium (Emission=490 nm) and TR-FRET (Emission=520 nm) in the reaction solution were measured at an excitation wavelength of 340 nm, so as to calculate the amount of the generated 5′-AMP. The count of a well to which a solvent had been added instead of the test compound was set at 0%, and the count of a well to which the enzyme PDE10 had not been added was set at 100%. Thus, the inhibitory activity of each test compound was calculated.
The PDE10 inhibitory activity of the test compound was indicated with an IC50 value. […] The test compounds are shown in Table 3 (Table 3-1 and Table 3-2).

Sequence of human PDE10 (Q9Y233 whole entry): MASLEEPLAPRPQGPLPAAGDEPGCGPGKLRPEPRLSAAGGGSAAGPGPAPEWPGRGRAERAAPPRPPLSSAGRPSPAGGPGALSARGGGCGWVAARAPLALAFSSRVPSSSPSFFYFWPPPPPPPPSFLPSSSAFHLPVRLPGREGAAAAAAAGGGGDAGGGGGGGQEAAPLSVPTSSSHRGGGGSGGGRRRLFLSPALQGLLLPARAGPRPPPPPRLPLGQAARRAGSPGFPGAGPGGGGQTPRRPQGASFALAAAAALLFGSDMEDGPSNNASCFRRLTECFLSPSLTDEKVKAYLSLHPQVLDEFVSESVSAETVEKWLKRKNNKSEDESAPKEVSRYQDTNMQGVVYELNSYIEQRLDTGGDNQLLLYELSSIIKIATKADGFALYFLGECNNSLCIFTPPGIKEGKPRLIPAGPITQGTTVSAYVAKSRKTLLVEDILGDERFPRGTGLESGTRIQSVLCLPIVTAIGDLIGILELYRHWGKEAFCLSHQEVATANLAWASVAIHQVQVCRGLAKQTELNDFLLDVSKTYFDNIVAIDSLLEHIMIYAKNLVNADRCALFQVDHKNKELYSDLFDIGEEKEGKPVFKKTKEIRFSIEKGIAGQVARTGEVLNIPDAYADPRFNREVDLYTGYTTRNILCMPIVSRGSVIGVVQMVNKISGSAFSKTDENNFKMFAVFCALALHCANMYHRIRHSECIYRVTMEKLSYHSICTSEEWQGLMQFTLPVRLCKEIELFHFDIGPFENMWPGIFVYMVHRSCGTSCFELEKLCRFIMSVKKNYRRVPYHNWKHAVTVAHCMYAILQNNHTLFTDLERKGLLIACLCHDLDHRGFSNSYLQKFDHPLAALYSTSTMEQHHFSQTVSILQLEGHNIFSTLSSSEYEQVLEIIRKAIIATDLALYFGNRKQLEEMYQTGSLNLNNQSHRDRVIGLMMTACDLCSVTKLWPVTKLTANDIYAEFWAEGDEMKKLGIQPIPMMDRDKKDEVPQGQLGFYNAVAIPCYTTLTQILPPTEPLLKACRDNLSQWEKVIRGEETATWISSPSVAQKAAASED

Row | Structure (SMILES) | IC50
1 | Cc1sc(-c2cnn(C)c2C(=O)NC2CCn3nc(-c4ccc(F)cc4)nc3C2)nc1C(F)F (stereo not shown) [Example 5.36, 4-(4-(difluoromethyl)-5-methylthiazol-2-yl)-N-(2-(4-fluorophenyl)-5,6,7,8-tetrahydro-[1,2,4]triazolo[1,5-a]pyridin-7-yl)-1-methyl-1H-pyrazole-5-carboxamide] | < 5 nM
2 | Cc1ccnc(-c2cnn(C)c2C(=O)Nc2ccn3nc(N4CC[C@H](F)C4)nc3c2)c1 [Example 4.17, (S)-N-(2-(3-fluoropyrrolidin-1-yl)-[1,2,4]triazolo[1,5-a]pyridin-7-yl)-1-methyl-4-(4-methylpyridin-2-yl)-1H-pyrazole-5-carboxamide] | < 5 nM
3 | Cc1cncc(-c2cnn(C)c2C(=O)NC2CCn3cc(-c4ccccc4)nc3C2)n1 (stereo not shown) [Example 2.13, 1-methyl-4-(6-methylpyrazin-2-yl)-N-(2-phenyl-5,6,7,8-tetrahydroimidazo[1,2-a]pyridin-7-yl)-1H-pyrazole-5-carboxamide] | < 5 nM
4 | Cn1ncc(-c2cccc(C(F)(F)F)n2)c1C(=O)Nc1ccn2nc(N3CCCC3)nc2c1 [Example 4.27, 1-methyl-N-(2-(pyrrolidin-1-yl)-[1,2,4]triazolo[1,5-a]pyridin-7-yl)-4-(6-(trifluoromethyl)pyridin-2-yl)-1H-pyrazole-5-carboxamide] | < 5 nM
5 | Cn1ncc(-c2ncncc2Cl)c1C(=O)Nc1cc2nc(-c3ccccc3)nn2cc1F [Example 3.29, 4-(5-chloropyrimidin-4-yl)-N-(6-fluoro-2-phenyl-[1,2,4]triazolo[1,5-a]pyridin-7-yl)-1-methyl-1H-pyrazole-5-carboxamide] | < 5 nM
6 | Cc1cc(-c2cnn(C)c2C(=O)Nc2cc3nc(-c4ccccc4)nn3cc2F)ncn1 [Example 3.39, N-(6-fluoro-2-phenyl-[1,2,4]triazolo[1,5-a]pyridin-7-yl)-1-methyl-4-(6-methylpyrimidin-4-yl)-1H-pyrazole-5-carboxamide] | < 5 nM
7 | Cn1ncc(-c2nc(C(F)F)cs2)c1C(=O)Nc1ccn2nc(N3CC[C@@H](F)C3)nc2c1 [Example 4.12, (R)-4-(4-(difluoromethyl)thiazol-2-yl)-N-(2-(3-fluoropyrrolidin-1-yl)-[1,2,4]triazolo[1,5-a]pyridin-7-yl)-1-methyl-1H-pyrazole-5-carboxamide] | < 5 nM
8 | COc1cncc(-c2cnn(C)c2C(=O)Nc2cc3nc(-c4ccccc4)nn3cc2F)n1 [Example 3.42, N-(6-fluoro-2-phenyl-[1,2,4]triazolo[1,5-a]pyridin-7-yl)-4-(6-methoxypyrazin-2-yl)-1-methyl-1H-pyrazole-5-carboxamide] | < 5 nM
9 | Cn1ncc(-c2nc(C(F)F)cs2)c1C(=O)NC1CCn2nc(-c3ccccc3)nc2C1 (stereo not shown) [Example 5.17, 4-(4-(difluoromethyl)thiazol-2-yl)-1-methyl-N-(2-phenyl-5,6,7,8-tetrahydro-[1,2,4]triazolo[1,5-a]pyridin-7-yl)-1H-pyrazole-5-carboxamide] | < 5 nM
10 | Cn1ncc(-c2nc(C(F)F)cs2)c1C(=O)Nc1ccn2nc(-c3ccccc3)nc2c1 [Example 3.15, 4-(4-(difluoromethyl)thiazol-2-yl)-1-methyl-N-(2-phenyl-[1,2,4]triazolo[1,5-a]pyridin-7-yl)-1H-pyrazole-5-carboxamide] | < 5 nM
11 | Cn1ncc(-c2nc(C(F)(F)F)cs2)c1C(=O)Nc1ccn2nc(N3CC[C@H](F)C3)nc2c1 [Example 4.22, (S)-N-(2-(3-fluoropyrrolidin-1-yl)-[1,2,4]triazolo[1,5-a]pyridin-7-yl)-1-methyl-4-(4-(trifluoromethyl)thiazol-2-yl)-1H-pyrazole-5-carboxamide] | < 5 nM
12 | CC(C)c1nsc(-c2cnn(C)c2C(=O)NC2CCn3cc(-c4ccccc4)nc3C2)n1 (stereo not shown) [Example 2.14, 4-(3-isopropyl-1,2,4-thiadiazol-5-yl)-1-methyl-N-(2-phenyl-5,6,7,8-tetrahydroimidazo[1,2-a]pyridin-7-yl)-1H-pyrazole-5-carboxamide] | < 5 nM
13 | Cn1cnc(-c2cnn(C)c2C(=O)Nc2cc3nc(-c4ccccc4)nn3cc2F)c1 [Example 3.48, N-(6-fluoro-2-phenyl-[1,2,4]triazolo[1,5-a]pyridin-7-yl)-1-methyl-4-(1-methyl-1H-imidazol-4-yl)-1H-pyrazole-5-carboxamide] | < 5 nM
14 | Cn1ncc(-c2nc(C(F)F)c(Cl)s2)c1C(=O)NC1CCn2nc(-c3ccccc3)nc2C1 (stereo not shown) [Example 5.29, 4-(5-chloro-4-(difluoromethyl)thiazol-2-yl)-1-methyl-N-(2-phenyl-5,6,7,8-tetrahydro-[1,2,4]triazolo[1,5-a]pyridin-7-yl)-1H-pyrazole-5-carboxamide] | < 5 nM
15 | Cn1ncc(-c2nc(C(F)(F)F)cs2)c1C(=O)NC1CCn2cc(-c3ccc(F)cc3)nc2C1 (stereo not shown) [Example 2.29, N-(2-(4-fluorophenyl)-5,6,7,8-tetrahydroimidazo[1,2-a]pyridin-7-yl)-1-methyl-4-(4-(trifluoromethyl)thiazol-2-yl)-1H-pyrazole-5-carboxamide] | < 5 nM
16 | Cc1ncnc(-c2cnn(C)c2C(=O)Nc2cc3nc(-c4ccccc4)nn3cc2F)c1C [Example 3.35, 4-(5,6-dimethylpyrimidin-4-yl)-N-(6-fluoro-2-phenyl-[1,2,4]triazolo[1,5-a]pyridin-7-yl)-1-methyl-1H-pyrazole-5-carboxamide] | < 5 nM
17 | Cc1cnnc(-c2cnn(C)c2C(=O)Nc2cc3nc(-c4ccccc4)nn3cc2F)c1 [Example 3.46, N-(6-fluoro-2-phenyl-[1,2,4]triazolo[1,5-a]pyridin-7-yl)-1-methyl-4-(5-methylpyridazin-3-yl)-1H-pyrazole-5-carboxamide] | < 5 nM
18 | Cc1ncc(Cl)c(-c2cnn(C)c2C(=O)Nc2cc3nc(-c4ccccc4)nn3cc2F)n1 [Example 3.41, 4-(5-chloro-2-methylpyrimidin-4-yl)-N-(6-fluoro-2-phenyl-[1,2,4]triazolo[1,5-a]pyridin-7-yl)-1-methyl-1H-pyrazole-5-carboxamide] | < 5 nM
19 | Cc1cncc(-c2cnn(C)c2C(=O)Nc2ccn3nc(N4CCCC4)nc3c2)n1 [Example 4.29, 1-methyl-4-(6-methylpyrazin-2-yl)-N-(2-(pyrrolidin-1-yl)-[1,2,4]triazolo[1,5-a]pyridin-7-yl)-1H-pyrazole-5-carboxamide] | < 5 nM
20 | Cc1ccnc(-c2cnn(C)c2C(=O)Nc2ccn3nc(N4CCC[C@@H]4C)nc3c2)c1 [Example 4.4, (S)-1-methyl-4-(4-methylpyridin-2-yl)-N-(2-(2-methylpyrrolidin-1-yl)-[1,2,4]triazolo[1,5-a]pyridin-7-yl)-1H-pyrazole-5-carboxamide] | < 5 nM
21 | COc1ccnc(-c2cnn(C)c2C(=O)Nc2ccn3nc(N4CC[C@H](F)C4)nc3c2)c1 [Example 4.18, (S)-N-(2-(3-fluoropyrrolidin-1-yl)-[1,2,4]triazolo[1,5-a]pyridin-7-yl)-4-(4-methoxypyridin-2-yl)-1-methyl-1H-pyrazole-5-carboxamide] | < 5 nM
22 | COc1nccc(-c2cnn(C)c2C(=O)Nc2cc3nc(-c4ccccc4)nn3cc2F)n1 [Example 3.26, N-(6-fluoro-2-phenyl-[1,2,4]triazolo[1,5-a]pyridin-7-yl)-4-(2-methoxypyrimidin-4-yl)-1-methyl-1H-pyrazole-5-carboxamide] | < 5 nM
23 | COc1nccnc1-c1cnn(C)c1C(=O)Nc1cc2nc(-c3ccccc3)nn2cc1F [Example 3.28, N-(6-fluoro-2-phenyl-[1,2,4]triazolo[1,5-a]pyridin-7-yl)-4-(3-methoxypyrazin-2-yl)-1-methyl-1H-pyrazole-5-carboxamide] | < 5 nM
24 | Cc1ccnnc1-c1cnn(C)c1C(=O)Nc1cc2nc(-c3ccccc3)nn2cc1F [Example 3.24, N-(6-fluoro-2-phenyl-[1,2,4]triazolo[1,5-a]pyridin-7-yl)-1-methyl-4-(4-methylpyridazin-3-yl)-1H-pyrazole-5-carboxamide] | < 5 nM
25 | Cn1ncc(-c2ccc(F)cn2)c1C(=O)Nc1cc2nc(-c3ccccc3)nn2cc1F [Example 3.8, N-(6-fluoro-2-phenyl-[1,2,4]triazolo[1,5-a]pyridin-7-yl)-4-(5-fluoropyridin-2-yl)-1-methyl-1H-pyrazole-5-carboxamide] | < 5 nM
26 | Cc1cc(C)nc(-c2cnn(C)c2C(=O)Nc2cc3nc(-c4ccc(F)cc4)nn3cc2F)c1 [Example 3.54, 4-(4,6-dimethylpyridin-2-yl)-N-(6-fluoro-2-(4-fluorophenyl)-[1,2,4]triazolo[1,5-a]pyridin-7-yl)-1-methyl-1H-pyrazole-5-carboxamide] | < 5 nM
27 | Cc1cnc(C)c(-c2cnn(C)c2C(=O)Nc2cc3nc(-c4ccccc4)nn3cc2F)n1 [Example 3.14, 4-(3,6-dimethyl-pyrazin-2-yl)-N-(6-fluoro-2-phenyl-[1,2,4]triazolo[1,5-a]pyridin-7-yl)-1-methyl-1H-pyrazole-5-carboxamide] | < 5 nM
28 | Cn1ncc(-c2nc(C(F)F)c(Cl)s2)c1C(=O)Nc1ccn2nc(N3CCCC3)nc2c1 [Example 4.26, 4-(5-chloro-4-(difluoromethyl)thiazol-2-yl)-1-methyl-N-(2-(pyrrolidin-1-yl)-[1,2,4]triazolo[1,5-a]pyridin-7-yl)-1H-pyrazole-5-carboxamide] | < 5 nM

From US9777000B2, “Pyrazole derivative” (MOCHIDA PHARMACEUTICAL CO., LTD., priority 2013, dated 2017)
